The experiment concerns Mus musculus. Description: In vivo antitumor activity against P-388 leukemia in mice was determined at 25 mg/kg/day level. It is filed as functional.

The structures appear in SMILES notation.

What is called T/C is the ratio of treated to control. Compound `COC1=C2C(N)Cc3cc(OC)c(O)cc3C2C[C@H](O)[C@@H]1O` (stereo partly specified) returned a T/C of 146%.

Values taken from ChEMBL document CHEMBL1128877, “Isosinococuline, a novel antitumor morphinane alkaloid from Cocculus trilobus” (1995).
